Source: paper PMC12621200, “Giving an Enzyme Scissors: Serotonin Derivatives as Potent Organocatalytic Switches for DNA Repair Enzyme OGG1” (Journal of Medicinal Chemistry, 2025)
Each block holds one compound with its values, some of them ahead of it.

How the values were obtained:
NUDT15 = biological target: T1, NUDT15 (Homo sapiens, UniProt Q9NV35); parameters: method as in Hank et al. 1 and Kehler et al. 2; conditions: reference compound; ref Hank et al. 1 and Kehler et al. 2; cited from earlier work
T1 construct: made in house
T1 sequence (Q9NV35 1-164): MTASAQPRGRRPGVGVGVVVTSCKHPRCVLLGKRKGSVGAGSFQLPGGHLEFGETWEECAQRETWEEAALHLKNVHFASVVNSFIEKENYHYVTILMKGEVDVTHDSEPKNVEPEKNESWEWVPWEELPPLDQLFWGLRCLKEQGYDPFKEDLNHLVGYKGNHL

OGG1 = biological target: T2, OGG1 (Homo sapiens, UniProt O15527); experiment: Biochemical fluorescence (fluorophore-quencher) assay of OGG1 incision rate, 8-oxoA substrate; conditions: for AC50 / AC50 (CI95%): concentration giving 50% of the incision rate of OGG1 with APE1 (2 nM) control; for AC50: read-out: AC50 (CI95%); for AC50 (μM): biochemical assay of virtual screening hits (NCI samples), Table S1
T2 construct: made in house
T2 sequence (O15527 whole entry): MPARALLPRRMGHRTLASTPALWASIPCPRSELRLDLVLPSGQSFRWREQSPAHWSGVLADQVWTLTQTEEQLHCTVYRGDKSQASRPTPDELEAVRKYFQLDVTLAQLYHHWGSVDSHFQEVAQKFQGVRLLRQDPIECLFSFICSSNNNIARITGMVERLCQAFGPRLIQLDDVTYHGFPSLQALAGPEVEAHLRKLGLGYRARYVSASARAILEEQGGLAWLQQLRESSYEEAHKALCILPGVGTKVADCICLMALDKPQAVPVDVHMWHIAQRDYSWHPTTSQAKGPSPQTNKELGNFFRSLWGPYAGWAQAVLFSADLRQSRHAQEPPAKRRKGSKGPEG

K249A mutant OGG1 = biological target: T3, K249A mutant OGG1 (Homo sapiens, UniProt O15527, K249A); experiment: AP-lyase assay on radiolabeled AP-site-containing oligonucleotide (PAGE); type: biochemical; conditions: Figure S8
T3 construct: made in house
T3 sequence (O15527 whole entry K249A): as the sequence (O15527 whole entry) above, with K249A counted along it

NUDT5 = biological target: T4, NUDT5 (Homo sapiens, UniProt Q9UKK9); parameters: method as in Hank et al. 1 and Kehler et al. 2; conditions: reference compound; ref Hank et al. 1 and Kehler et al. 2; cited from earlier work
T4 construct: made in house

SMILES: O=C(c1ccc2[nH]ccc2c1)N1CCN(S(=O)(=O)c2ccc3[nH]c(=O)oc3c2)CC1 [TH1760]
- Reference inhibition (NUDT15): 96%

- OGG1 activation, SAR result in words (OGG1): did not significantly affect potency
- AC50 (OGG1): 0.74 µM
- restoration of AP-lyase activity of Lys249Ala mutant (K249A mutant OGG1): failed to restore AP-lyase activity
SMILES: NCCc1c(-c2cncc(F)c2)[nH]c2ccc(O)cc12 [Compound 41, 3-(2-Aminoethyl)-2-(5-fluoropyridin-3-yl)-1H-indol-5-ol]

SMILES: Cn1c(=O)c2c(nc(N3CCNCC3)n2Cc2nnc(-c3ccc(Cl)c(Cl)c3)o2)n(C)c1=O [TH5427]
- Reference inhibition (NUDT5): 99%

- AC50 (μM) (OGG1): inactive
SMILES: O=C(O)c1cccc(NC(C(=O)c2ccccc2)c2ccccc2)c1 (stereo not shown) [NSC 4232]

SMILES: NCCc1c(-c2cccnc2)[nH]c2ccc(F)cc12 [Compound 34, 2-(5-Fluoro-2-(pyridin-3-yl)-1H-indol-3-yl)-ethan-1-amine]
- OGG1 activation, SAR result in words (OGG1): tolerated
- AC50 (OGG1): 6.4 µM

- AC50 (μM) (OGG1): inactive
SMILES: CC1CC2=C(C(=O)O1)C(c1ccccc1)Nc1ccccc1N2 (stereo not shown) [NSC 637579]

- AC50 (OGG1): 8.7 µM
- decrease of activity (OGG1; ethanol derivative versus amine 30): ~10 fold
SMILES: OCCc1c(-c2cccnc2)[nH]c2ccc(O)cc12 [Compound 47, 3-(2-Hydroxyethyl)-2-(pyridin-3-yl)-1H-indol-5-ol]

- AC50 (OGG1): 1.9 µM
SMILES: Fc1ccc2[nH]c(-c3cccnc3)cc2c1 [Compound 12, 5-Fluoro-2-(pyridin-3-yl)-1H-indole]

- AC50 (CI95%) (OGG1): inactive
SMILES: NCc1c(-c2cccnc2)[nH]c2ccc(O)cc12 [Compound 39, 3-(Aminomethyl)-2-(pyridin-3-yl)-1H-indol-5-ol]
- OGG1 activation, SAR result in words (OGG1): not tolerated

- AC50 (OGG1): > 100 µM
SMILES: Nc1cncc(-c2cc3ccccc3[nH]2)c1 [Compound 18]

- OGG1 activation, SAR result in words (OGG1): attenuated activity
- AC50 (CI95%) (OGG1): inactive
SMILES: Cn1c(-c2cccnc2)c(CCN)c2cc(O)ccc21 [Compound 48, 3-(2-Aminoethyl)-1-methyl-2-(pyridin-3-yl)-1H-indol-5-ol]

- AC50 (μM) (OGG1): inactive
SMILES: Cc1nc(N)[nH]c(=O)c1CCCNc1cccc(C(F)(F)F)c1 [NSC 210448]

- AC50 (CI95%) (OGG1): inactive
SMILES: NCCc1c(-c2cccnc2)[nH]c2ccc(C(=O)O)cc12 [Compound 37, 3-(2-Aminoethyl)-2-(pyridin-3-yl)-1H-indole-5-carboxylic Acid]
- OGG1 activation, SAR result in words (OGG1): not tolerated

- OGG1 activation, SAR result in words (OGG1): lost activity
- AC50 (CI95%) (OGG1): inactive
SMILES: NCCc1c(-c2ccccn2)[nH]c2ccc(O)cc12 [Compound 42, 3-(2-Aminoethyl)-2-(pyridin-2-yl)-1H-indol-5-ol]

- AC50 (μM) (OGG1): inactive
SMILES: COc1ccccc1N1C(=O)CSC1c1c[nH]c2ccccc12 (stereo not shown) [NSC 655348]

- AC50 (CI95%) (OGG1): inactive
SMILES: c1ccc2[nH]c(-c3ccncc3)cc2c1 [Compound 24, (2-Pyridin-4-yl)-1H-indole]
- OGG1 activation, SAR result in words (OGG1): not tolerated

- AC50 (μM) (OGG1): inactive
SMILES: COc1cc(OC)c(NC(=O)CC2SC(N)=NC2=O)cc1Cl (stereo not shown) [NSC 247010]

- AC50 (OGG1): 28 µM
SMILES: NCCc1[nH]c2ccccc2c1-c1cccnc1 [Compound 50, 2-(3-(Pyridin-3-yl)-1H-indol-2-yl)-ethan-1-amine]

- AC50 (μM) (OGG1): inactive
SMILES: O=C(c1ccccc1)[C@H](Nc1ccc2ccccc2c1)c1ccccc1 [NSC 34924]

- AC50 (CI95%) (OGG1): inactive
SMILES: c1ccc2[nH]c(-c3cncnc3)cc2c1 [Compound 25, 2-(Pyrimidin-5-yl)-1H-indole]
- OGG1 activation, SAR result in words (OGG1): not tolerated

- AC50 (μM) (OGG1): inactive
SMILES: Cl.NC(=O)C1CCCN(Cc2c[nH]c3ccccc23)C1 (stereo not shown) [NSC 32474]
